Measurements published in patent US12605539B2, “Methods and systems for delivering drugs through skin of a body” (PASSPORT TECHNOLOGIES, INC., priority 2019, dated 2026).
Values belong to the compound of their own block, whether it stands above or below them.

Experiments:
Format in all cases: in vivo, hairless Guinea pigs
[1] = Blood concentration of polysaccharide (Fondaparinux) after microporation patch (FIG. 13); details: 4 ms pulses
Description: The patch 102 used for FIG. 13 graphs 1300 and 1320 has a nonwoven matrix, a thickness of 180 μm, weight of 18 g/m^2, WHC of 17 mg/cm^2, a drug of 0.01 mg/cm^2, and a total solids level of 6.1 mg/cm^2. An energy pulse of 6.3 mJ and 5.2 mJ per filament to create between about 200 and 400 pathways via microporation having a 1 cm^2 treated area of between about 5 and 10% per square centimeter of skin, respectively.
(§1) The graph 1300 includes the concentration of the polysacharride (for example, Fondaparinux) in micrograms/milliliter (μg/mL) along the y-axis and time in hours (hr) along the x-axis. […] The line 1302 represents the patch 102 having a formulation of 2.5 mg of the polysacharride applied with the patch 102 and microporation parameters described above. The line 1304 represents the patch 102 having a formulation of 5.0 mg of the polysacharride applied with the patch 102 and microporation parameters described above. The line 1306 represents the patch 102 having a formulation of 7.5 mg of the polysacharride applied with the patch 102 and microporation parameters described above. Each of the three lines 1302, 1304, and 1306 follow the same general trend of increasing to a peak concentration value and then gradually decreasing in concentration. The line 1306 has the highest concentration values, followed by line 1304 and then line 1302.
as §1, with “1320” for “1300”, “1322” for “1302”, “1324” for “1304”, “1326” for “1306”, “1322, 1324,” for “1302, 1304,”, “1322.” for “1302.”

[2] = Blood concentration of peptide (Teriparatide) after microporation patch (FIG. 17); details: hairless, guinea pig, topical, API 0.2 mg/cm^2 + 0.5 mg sucrose; for bioavailability: read-out: bioavailability (BA); for Cmax: read-out: maximum concentration (Cmax)
Description: Table 15 identifies two groups (group 4 and group 6) that both use stainless steel filaments 200 and create 200 and 400 pathways, respectively, having applied an energy pulse of 9.3 mJ per filament with a treated area of about 10% per square centimeter of skin for 0.5 cm2 and 1.0 cm^2, respectively. The patch 102 used for the administration of the peptide shown in graph 1700 has a thickness of 38 μm, a weight of 12 g/m^2, a WHC of 4 mg/cm^2, an API of 0.2 mg/cm^2, and a total solid weight of about 0.7 mg/cm^2.
The graph 1700 includes the concentration of the peptide in ng/mL along the y-axis and time in hours (hr) along the x-axis. […] The line 1702 represents the patch 102 and microporation parameters of group 4 described above. The line 1704 represents the patch 102 and microporation parameters of group 6 described above.

[3] = Blood concentration of Somatropin after microporation patch (FIG. 18); details: patch 0.5 mg, 1.0 cm^2
Source text: The microporation occurs according to the parameters in Table 17. […] 200 Wide filaments are double the width of standard one (2×50 micrometers) so the energy pulse of 5.2 mJ and 9.3 mJ per filament, thus providing the same current density/flux, and similar power used.
The graph 1800 includes the concentration of the peptide in ng/mL along the y-axis and time in hours (hr) along the x-axis. […] The line 1802 represents the group 1 parameters from Tables 17 and 18. The line 1804 represents the group 2 parameters from Tables 17 and 18. The line 1806 represents the group 3 parameters from Tables 17 and 18. The line 1808 represents the group 4 parameters from Tables 17 and 18. Each of the four lines 1802, 1804, 1806, and 1808 follow the same general trend of increasing to a peak concentration value and then gradually decreasing in concentration. The line 1808 generally has the highest concentration values, followed by line 1802, then line 1804, and finally line 1806. It is noted that the line 1804 exceeds line 1806 from between about 2 hours to about 3 hours.

[4] = 0.2 mg/cm^2, group 4: 200 pores, 0.5 cm^2, 9.3 mJ/filament
[5] = 0.2 mg/cm^2, group 6: 400 pores, 1.0 cm^2, 9.3 mJ/filament
[6] = group 1: 400 pores, 5.7 mJ/filament (Table 17)
[7] = group 2: 400 pores, 9.3 mJ/filament
[8] = group 3: 200 wide pores, 5.2 mJ/filament
[9] = group 4: 200 wide pores, 9.3 mJ/filament

area under the curve (AUC) ([1]; patch 2.5 mg, 200 pathways): 72800 ng·h/mL
bioavailability ([1]; patch 2.5 mg, 200 pathways): 170.9%
maximum concentration ([1]; patch 2.5 mg, 200 pathways): 5.1 µg/mL
AUC ([1]; patch 2.5 mg, 400 pathways): 97300 ng·h/mL
bioavailability ([1]; patch 2.5 mg, 400 pathways): 228.5%
maximum concentration ([1]; patch 2.5 mg, 400 pathways): 8.0 µg/mL
AUC ([1]; patch 5.0 mg, 200 pathways): 100900 ng·h/mL
bioavailability ([1]; patch 5.0 mg, 200 pathways): 118.4%
maximum concentration ([1]; patch 5.0 mg, 200 pathways): 6.7 µg/mL
AUC ([1]; patch 5.0 mg, 400 pathways): 125200 ng·h/mL
bioavailability ([1]; patch 5.0 mg, 400 pathways): 146.9%
maximum concentration ([1]; patch 5.0 mg, 400 pathways): 10.5 µg/mL
AUC ([1]; patch 7.5 mg, 200 pathways): 152300 ng·h/mL
bioavailability ([1]; patch 7.5 mg, 200 pathways): 119.2%
maximum concentration ([1]; patch 7.5 mg, 200 pathways): 9.1 µg/mL
AUC ([1]; patch 7.5 mg, 400 pathways): 145800 ng·h/mL
bioavailability ([1]; patch 7.5 mg, 400 pathways): 114.1%
maximum concentration ([1]; patch 7.5 mg, 400 pathways): 11.5 µg/mL
Compound: CO[C@H]1O[C@H](COS(=O)(=O)O)[C@@H](O[C@@H]2O[C@@H](C(=O)O)[C@@H](O[C@H]3O[C@H](COS(=O)(=O)O)[C@@H](O[C@@H]4O[C@H](C(=O)O)[C@@H](O[C@H]5O[C@H](COS(=O)(=O)O)[C@@H](O)[C@H](O)[C@H]5NS(=O)(=O)O)[C@H](O)[C@H]4O)[C@H](OS(=O)(=O)O)[C@H]3NS(=O)(=O)O)[C@H](O)[C@H]2OS(=O)(=O)O)[C@H](O)[C@H]1NS(=O)(=O)O [Fondaparinux]

AUC [2, 4]: 3260 ng·h/mL
bioavailability [2, 4]: 37.4%
Cmax [2, 4]: 9.16 ng/mL
AUC [2, 5]: 2210 ng·h/mL
bioavailability [2, 5]: 25.4%
Cmax [2, 5]: 11.2 ng/mL
Compound: CC[C@H](C)[C@H](NC(=O)[C@H](CCC(=O)O)NC(=O)[C@H](CO)NC(=O)[C@@H](NC(=O)[C@@H](N)CO)C(C)C)C(=O)N[C@@H](CCC(N)=O)C(=O)N[C@@H](CC(C)C)C(=O)N[C@@H](CCSC)C(=O)N[C@@H](Cc1cnc[nH]1)C(=O)N[C@@H](CC(N)=O)C(=O)N[C@@H](CC(C)C)C(=O)NCC(=O)N[C@@H](CCCCN)C(=O)N[C@@H](Cc1cnc[nH]1)C(=O)N[C@@H](CC(C)C)C(=O)N[C@@H](CC(N)=O)C(=O)N[C@@H](CO)C(=O)N[C@@H](CCSC)C(=O)N[C@@H](CCC(=O)O)C(=O)N[C@@H](CCCN=C(N)N)C(=O)N[C@H](C(=O)N[C@@H](CCC(=O)O)C(=O)N[C@@H](Cc1c[nH]c2ccccc12)C(=O)N[C@@H](CC(C)C)C(=O)N[C@@H](CCCN=C(N)N)C(=O)N[C@@H](CCCCN)C(=O)N[C@@H](CCCCN)C(=O)N[C@@H](CC(C)C)C(=O)N[C@@H](CCC(N)=O)C(=O)N[C@@H](CC(=O)O)C(=O)N[C@H](C(=O)N[C@@H](Cc1cnc[nH]1)C(=O)N[C@@H](CC(N)=O)C(=O)N[C@@H](Cc1ccccc1)C(=O)O)C(C)C)C(C)C [Teriparatide]

Compound: Somatropin
AUC [3, 6]: 87.1 ng·h/mL
Cmax [3, 6]: 20.4 ng/mL
Tmax [3, 6]: 1.3 h
bioavailability (BA) [3, 6]: 35.8%
AUC [3, 7]: 90.1 ng·h/mL
Cmax [3, 7]: 16.1 ng/mL
Tmax [3, 7]: 1.8 h
bioavailability (BA) [3, 7]: 37.0%
AUC [3, 8]: 78.1 ng·h/mL
Cmax [3, 8]: 16.4 ng/mL
Tmax [3, 8]: 1.5 h
bioavailability (BA) [3, 8]: 32.1%
AUC [3, 9]: 94.9 ng·h/mL
Cmax [3, 9]: 22.6 ng/mL
Tmax [3, 9]: 1.5 h
bioavailability (BA) [3, 9]: 39.0%
